Reference: patent US20120232062A1, “AZAINDAZOLES TO TREAT FLAVIVIRIDAE VIRUS INFECTION” (EIGER BIOPHARMACEUTICALS, INC., priority 2009, published 2012)

tested on: HCV genotype 1b; test: HCV 1b replicon luciferase assay; assay type: cell-based; conditions: Hepatitis C virus, Huh-7, 48 h, Table 1; Huh7 HCV 1b replicon, luciferase reporter, 48 hours; read-out: 1b EC50
How it was run: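 Huh7 cells carrying a genotype 1b replicon with stable luciferase reporter, 10k cells/well, were treated 48 h at 37 °C with 10-point 5-fold dilutions from 25 μM (0.1% DMSO), in duplicate. Replication was read as Steady-Glo luminescence.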

Question: Which EC50 does the source give for `Cn1nc(-c2cnc(C3CCN(CC(F)F)C3)s2)c2ccc(N3CCCCCCC3)nc21` (stereo not shown) [compound 1269] here?
Answer: 4600 nM

Question: `Cn1nc(-c2nnc(C3CCCNC3)o2)c2ccc(N3CCCCCCC3)nc21` (stereo not shown) [compound 1271] was tested. Which EC50 did it give?
Answer: 3200 nM

Question: How did the EC50 turn out when `Cn1nc(-c2nnc(C3CCCN(CC4CCCCC4)C3)o2)c2ccc(N3CCCCCCC3)nc21` (stereo not shown) [compound 1272] was run?
Answer: 940 nM

Question: With `Cn1nc(-c2nnc(C3CCCN(CC(F)F)C3)o2)c2ccc(N3CCCCCCC3)nc21` (stereo not shown) [compound 1273] as the compound, how does the EC50 read?
Answer: 4800 nM

Question: How did the EC50 turn out when `Cn1nc(C(=O)NC2CCN(CCN3CCCC3)CC2)c2ccc(N3CCCCCCC3)nc21` [compound 1296] was run?
Answer: 500 nM

Question: With `Cn1nc(C(=O)NC2CCN(CCC3CCCCC3)CC2)c2ccc(N3CCCCCCC3)nc21` [compound 1299] as the compound, how does the EC50 read?
Answer: 310 nM

Question: Which EC50 does the source give for `Cn1nc(C(=O)NC2CCN(CCC(F)(F)F)CC2)c2ccc(N3CCCCCCC3)nc21` [compound 1301] here?
Answer: 5100 nM

Question: How did the EC50 turn out when `CC(C)c1ccc(CN(c2ccc3c(C(=O)NC4CCN(CCN5CCCCC5)CC4)nn(C)c3n2)C2CCCCCC2)cc1` [compound 1303] was run?
Answer: 660 nM

Question: For `CC(c1ccncc1)N1CCC(NC(=O)c2nn(C)c3nc(N4CCCCCCC4)ccc23)CC1` (stereo not shown) [compound 1304], which EC50 is on record?
Answer: 1400 nM

Question: For `Cn1nc(C(=O)NC2CCN(CC3CCCC3)CC2)c2ccc(N3CCCCCCC3)nc21` [compound 1305], which EC50 is on record?
Answer: 490 nM

Question: `CC(C1CC1)N1CCC(NC(=O)c2nn(C)c3nc(N4CCCCCCC4)ccc23)CC1` (stereo not shown) [compound 1311] was tested. Which EC50 did it give?
Answer: 970 nM

Question: With `CC(c1cccc(C(F)(F)F)c1)N1CCC(NC(=O)c2nn(C)c3nc(N4CCCCCCC4)ccc23)CC1` (stereo not shown) [compound 1312] as the compound, how does the EC50 read?
Answer: 2700 nM

Question: Which EC50 does the source give for `Cn1nc(-c2cnc(C(=O)NC3CCCN(CCN4CCCCC4)C3)s2)c2ccc(N3CCCCCCC3)nc21` (stereo not shown) [compound 1316] here?
Answer: 550 nM

Question: Which EC50 does the source give for `Cn1nc(-c2cnc(C(=O)NC3CCCN(CC(F)F)C3)s2)c2ccc(N3CCCCCCC3)nc21` (stereo not shown) [compound 1322] here?
Answer: 1100 nM

Question: How did the EC50 turn out when `Cn1nc(-c2nnc(C3CCN(CC(F)F)CC3)o2)c2ccc(N3CCCCCCC3)nc21` [compound 1323] was run?
Answer: 4400 nM

Question: `Cn1nc(-c2nnc(C3CCCCN3CC3CCCCC3)o2)c2ccc(N3CCCCCCC3)nc21` (stereo not shown) [compound 1324] was tested. Which EC50 did it give?
Answer: 660 nM

Question: With `Cn1nc(-c2nnc(C3CCCCN3CCN3CCCCC3)o2)c2ccc(N3CCCCCCC3)nc21` (stereo not shown) [compound 1326] as the compound, how does the EC50 read?
Answer: 4800 nM

Question: With `O=C(NC1CCCNC1)c1nn(-c2ccccc2)c2nc(N3CCCCCC3)ccc12` (stereo not shown) [compound 1349] as the compound, how does the EC50 read?
Answer: 5000 nM

Question: How did the EC50 turn out when `O=C(NC1CCNCC1)c1nn(-c2ccccc2)c2nc(N3CCCCCC3)ccc12` [compound 1350] was run?
Answer: 3800 nM

Question: For `Cn1nc(-c2nnc(C3CCNC3)o2)c2ccc(N3CCCCCCC3)nc21` (stereo not shown) [compound 1363], which EC50 is on record?
Answer: 2700 nM

Question: With `Cn1nc(-c2nnc([C@@H]3CCCN3CCN3CCCCC3)o2)c2ccc(N3CCCCCCC3)nc21` [compound 1364] as the compound, how does the EC50 read?
Answer: 2200 nM

Question: `Cn1nc(-c2nnc(C3CCN(CC4CCCCC4)C3)o2)c2ccc(N3CCCCCCC3)nc21` (stereo not shown) [compound 1365] was tested. Which EC50 did it give?
Answer: 2600 nM

Question: `Cn1nc(-c2nnc(C3CCN(CC(F)F)C3)o2)c2ccc(N3CCCCCCC3)nc21` (stereo not shown) [compound 1366] was tested. Which EC50 did it give?
Answer: 4000 nM

Question: For `Cn1nc(-c2nnc(C3CCN(CCN4CCCCC4)C3)o2)c2ccc(N3CCCCCCC3)nc21` (stereo not shown) [compound 1368], which EC50 is on record?
Answer: 4800 nM

Question: Which EC50 does the source give for `Cn1nc(-c2nnc(C3CCN(CCN4CCCCC4)CC3)o2)c2ccc(N3CCCCCCC3)nc21` [compound 1373] here?
Answer: 630 nM

Question: For `CCCCCCNc1ccc2c(C(=O)NC3CCCNC3)nn(-c3cccc(Cl)c3C)c2n1` (stereo not shown) [compound 1378], which EC50 is on record?
Answer: 2600 nM

Question: With `C[C@@H]1CCCN1CCN1CCC(NC(=O)c2nn(C)c3nc(N4CCCCCC4)ccc23)CC1` [compound 1424] as the compound, how does the EC50 read?
Answer: 790 nM

Question: With `COCC1CCCCN1CCN1CCC(NC(=O)c2nn(C)c3nc(N4CCCCCC4)ccc23)CC1` (stereo not shown) [compound 1426] as the compound, how does the EC50 read?
Answer: 450 nM

Question: `COCC1CCCN1CCCc1nn(C)c2nc(N3CCCCCCC3)ccc12` (stereo not shown) [compound 1453] was tested. Which EC50 did it give?
Answer: 2800 nM

Question: Which EC50 does the source give for `CC1CCCCN1CCCc1nn(C)c2nc(N3CCCCCCC3)ccc12` (stereo not shown) [compound 1454] here?
Answer: 1600 nM

Question: With `Cn1nc(CCCN2CC[C@H](O)C2)c2ccc(N3CCCCCCC3)nc21` [compound 1458] as the compound, how does the EC50 read?
Answer: 3200 nM

Question: For `Cn1nc(CCCN2CCCC(CO)C2)c2ccc(N3CCCCCCC3)nc21` (stereo not shown) [compound 1460], which EC50 is on record?
Answer: 2700 nM

Question: For `Cn1nc(CCCN2CC=CC2)c2ccc(N3CCCCCCC3)nc21` [compound 1461], which EC50 is on record?
Answer: 2600 nM

Question: How did the EC50 turn out when `CC1CCC(C)N1CCCc1nn(C)c2nc(N3CCCCCCC3)ccc12` (stereo not shown) [compound 1462] was run?
Answer: 1200 nM

Question: `Cn1nc(CCCN2CCC[C@@H]2CO)c2ccc(N3CCCCCCC3)nc21` [compound 1464] was tested. Which EC50 did it give?
Answer: 2000 nM

Question: How did the EC50 turn out when `COC[C@@H]1CCCN1CCCc1nn(C)c2nc(N3CCCCCCC3)ccc12` [compound 1465] was run?
Answer: 4700 nM

Question: For `Cn1nc(C(=O)NC2CCN(CCN3CCCCC3)CC2)c2ccc(NC3CCCCCCC3)nc21` [compound 1468], which EC50 is on record?
Answer: 330 nM

Question: `Cn1nc(C(=O)NC2CCN(CC(F)F)CC2)c2ccc(NC3CCCCCCC3)nc21` [compound 1472] was tested. Which EC50 did it give?
Answer: 1400 nM

Question: For `CC(C)CN1CCC(NC(=O)c2nn(C)c3nc(NC4CCCCCCC4)ccc23)CC1` [compound 1473], which EC50 is on record?
Answer: 890 nM

Question: How did the EC50 turn out when `CCN1CCC(NC(=O)c2nn(C)c3nc(NC4CCCCCCC4)ccc23)CC1` [compound 1474] was run?
Answer: 480 nM

Question: With `Cn1nc(C(=O)NC2CCN(CC3CCOCC3)CC2)c2ccc(NC3CCCCCCC3)nc21` [compound 1476] as the compound, how does the EC50 read?
Answer: 570 nM

Question: `Cn1nc(C(=O)NC2CCN(CC3CC3)CC2)c2ccc(NC3CCCCCCC3)nc21` [compound 1478] was tested. Which EC50 did it give?
Answer: 560 nM

Question: `Cn1nc(C(=O)NC2CCN(CC#N)CC2)c2ccc(NC3CCCCCCC3)nc21` [compound 1479] was tested. Which EC50 did it give?
Answer: 920 nM

Question: `CCCn1nc(C(=O)NC2CCN(CCN3CCCCC3)CC2)c2ccc(N3CCCCCC3)nc21` [compound 1486] was tested. Which EC50 did it give?
Answer: 760 nM

Question: For `CC(C)Cn1nc(C(=O)NC2CCN(CCN3CCCCC3)CC2)c2ccc(N3CCCCCC3)nc21` [compound 1487], which EC50 is on record?
Answer: 830 nM

Question: Which EC50 does the source give for `O=C(NC1CCN(CCN2CCCCC2)CC1)c1nn(CC2CC2)c2nc(N3CCCCCC3)ccc12` [compound 1489] here?
Answer: 550 nM

Question: How did the EC50 turn out when `Cn1nc(CCCN2C[C@@H](O)[C@@H](O)C2)c2ccc(N3CCCCCCC3)nc21` [compound 1495] was run?
Answer: 4700 nM

Question: With `C[C@@H]1CCCN1CCCc1nn(C)c2nc(N3CCCCCCC3)ccc12` [compound 1499] as the compound, how does the EC50 read?
Answer: 4000 nM

Question: `COC[C@@H]1CCCN1CCN1CCC(NC(=O)c2nn(C)c3nc(N4CCCCCC4)ccc23)CC1` [compound 1556] was tested. Which EC50 did it give?
Answer: 2900 nM

Question: How did the EC50 turn out when `COCC1CCN(CCN2CCC(NC(=O)c3nn(C)c4nc(N5CCCCCC5)ccc34)CC2)C1` (stereo not shown) [compound 1557] was run?
Answer: 2100 nM

Question: For `Cn1nc(C(=O)NC2CCN(CCN3CC[C@@H](O)C3)CC2)c2ccc(N3CCCCCC3)nc21` [compound 1558], which EC50 is on record?
Answer: 3400 nM

Question: With `Cn1nc(C(=O)NC2CCN(CCN3CCC[C@H]3CO)CC2)c2ccc(N3CCCCCC3)nc21` [compound 1561] as the compound, how does the EC50 read?
Answer: 3800 nM

Question: Which EC50 does the source give for `Cn1nc(C(=O)NC2CCN(CCN3CCCC3)CC2)c2ccc(NC3CCCCC3)nc21` [compound 1581] here?
Answer: 3300 nM

Question: With `Cn1nc(C(=O)NC2CCN(C3CCCCC3)CC2)c2ccc(N3CCCCCC3)nc21` [compound 1594] as the compound, how does the EC50 read?
Answer: 1800 nM

Question: Which EC50 does the source give for `CCCN1CCC(NC(=O)c2nn(C)c3nc(N4CCCCCC4)ccc23)CC1` [compound 1596] here?
Answer: 1400 nM

Question: Which EC50 does the source give for `Cn1nc(C(=O)NC2CCN(CCO)CC2)c2ccc(N3CCCCCC3)nc21` [compound 1598] here?
Answer: 2700 nM

same assay, conditions: Table 1; Huh7 HCV 1b replicon, luciferase reporter, 48 hours; read-out: 1b EC50

Question: How did the EC50 turn out when `Cn1nc(C(=O)NC2CCN(CC3CC3)CC2)c2ccc(N3CCCCCCC3)nc21` [compound 1300] was run?
Answer: 2700 nM

Question: With `Cn1nc(C(=O)NC2CCN(CC3CCCCC3)CC2)c2ccc(NC3CCCCCCC3)nc21` [compound 1477] as the compound, how does the EC50 read?
Answer: 530 nM
